biological target: Histone deacetylase; assay: In vitro residual activity against Histone deacetylase (HDAC) at 1 uM concentration

residual activity [%] | SMILES
96.3 | O=C(CCCCC(=O)NCCCCN(Cc1ccccc1-c1ccccc1)Cc1ccccc1-c1ccccc1)NO
26.1 | Br.O=C(CCCCCCC(=O)NCCCNCCCCNCCC(c1ccccc1)c1ccccc1)NO
89.7 | CN(C)c1ccc(CNCCCCNC(=O)CCCCC(=O)NO)cc1.O=C(O)C(F)(F)F
84.4 | CN(C)c1ccc(CN(CCCCN)C(=O)CCCCCCC(=O)NO)cc1.O=C(O)C(F)(F)F
59 | Br.O=C(CCCCC(=O)NCCCNCCCNCCCNCCCNCC1CCCCCC1)NO
46.8 | Cc1ccc(CNCCCCNC(=O)CCCCCCC(=O)NO)cc1.O=C(O)C(F)(F)F
40 | Br.CN(C)c1ccc(CN(CCCNCCCCN)C(=O)CCCCC(=O)NO)cc1
83.7 | O=C(CCCCC(=O)NCCCCNCc1ccccc1-c1ccccc1)NO
50.6 | Br.CC(C)(C)c1ccc(CNCCCCNCCCNC(=O)CCCCCCC(=O)NO)cc1
25.1 | Br.CC(C)(C)c1ccc(CNCCCCNCCCNC(=O)CCCCC(=O)NO)cc1
80.2 | Br.O=C(CCCCC(=O)NCCCNCCCCNCCC(c1ccccc1)c1ccccc1)NO
66.1 | CN(C)c1ccc(CNCCCCNC(=O)CCCCCCC(=O)NO)cc1.O=C(O)C(F)(F)F
98.5 | Br.CC(C)(C)c1ccc(CNCCCCNCCCNC(=O)CCCCC(=O)O)cc1
55.8 | Cc1ccc(CNCCCCNC(=O)CCCCC(=O)NO)cc1
